# Tests used:
# [1] = system: Caco-2 colonic cells co-cultured with HT29-MTX E12 cells; experiment: Bacterial adherence to colonocyte co-cultures; format: cell-based, human
# Description: (§1) Mammalian cell culture binding assays: Caco-2 colonic cells were co-cultured with HT29-MTX E12 cells at a ratio of 3:1 and seeded at a density of 5×10^4 cells/well in 24-well plates, maintained as described above. On day 1 post-confluence, medium was removed, the cells washed once with PBS, and DMEM without FBS or antibiotics was added prior to binding assay. Bacteria were prepared as described above, with or without SIgA and resuspended in PBS at 1×10^7 CFU/mL. 4×10^5 CFU were added to the colonocytes and the plate was centrifuged at 600×g for 5 min to ensure bacteria association with the cells. After 2 h of incubation at 37° C. in 5% CO2, medium was removed and saved for cytokine analysis. Cells were washed once with PBS, and to one set of replicates, cells were lysed with 0.5% Triton X-100 and serial dilutions of the cell suspensions were plated on MRS and incubated anaerobically at 37° C. overnight to test viability. To a second set of replicates, TRIzol (15596018; Life Technologies) was added directly to washed cells for RNA extraction.
# [2] = system: colonocytes (Caco-2 / HT29-MTX E12 co-culture); experiment: Colonocyte barrier function and immune gene expression (RT-qPCR); format: cell-based, human; conditions: for change of IL-8 expression when SIgA is first complexed to the bacteria / change of JAM expression when SIgA is first complexed: SIgA-complexed vs bacteria alone
# Description: as §1
# Mammalian cell culture RT-qPCR for gene expression: Total RNA from mammalian co-culture samples were extracted via the TRIzol method. Total RNA (1 μg) was treated with Turbo DNAse (EN0521; Thermo Fisher) to remove genomic DNA, then used for reverse transcription producing cDNA, performed according to manufacturer protocol (High Capacity Complementary DNA Reverse Transcription Kit; Applied Biosystems). Gene list and primer sequences can be found in Table 2. Real-time PCR was performed with the Quantistudio 3 qPCR thermocycler (Applied Biosystems) using SyberGreen master mix (Life Technologies). Actin and GADPH were used as house-keeping genes. Analysis was performed using Quantistudio Design and Analysis Software v.1.4.3.
# [3] = colonocytes, listed as B. infantis
substance,measurement,setting,value
Bifidobacterium longum ssp. infantis ATCC 15697,increased adherence to the co-culture with the addition of SIgA,[1]; first grown on LNnT,7.5e5 CFU
same,increased adherence to the co-culture with the addition of SIgA,[1]; first grown on glucose,3.5e6 CFU
same,slope of regression plot of adherent bacteria with SIgA association,[1]; lactose-grown,4.6e3 adherent CFU per % population associated with SIgA
same,Slope (adherent CFU/% SIgA association),[1]; substrate 2'FL,1552.0 adherent CFU/% SIgA associatio
same,Slope (adherent CFU/% SIgA association),[1]; substrate LNnT,3606.0 adherent CFU/% SIgA associatio
same,Slope (adherent CFU/% SIgA association),[1]; substrate all (no lac),4887.0 adherent CFU/% SIgA associatio
same,Slope (adherent CFU/% SIgA association),[1]; substrate glucose,6882.0 adherent CFU/% SIgA associatio
same,Slope (adherent CFU/% SIgA association),[1]; substrate lactose,−2230.0 adherent CFU/% SIgA associatio
same,change of barrier gene MUCSAC expression when SIgA is first complexed,"[2]; colonocytes, 1000 μg SIgA per 1e7 CFU",decreased
same,change of IL-8 expression when SIgA is first complexed to the bacteria,[2]; [3],reduces the expression
same,change of JAM expression when SIgA is first complexed,[2]; [3],increasing the expression
same,change of IL-8 expression when SIgA is first complexed to the bacteria,"[2]; colonocytes, listed as BLI",increased
same,change of JAM expression when SIgA is first complexed,"[2]; colonocytes, listed as BLI",decreased
same,change of Claudin 1 expression with SIgA association,[2]; mammalian colonocytes,increasing the expression
same,change of Occludin expression with SIgA association,[2]; mammalian colonocytes,increasing the expression
